Tests used:
[1] = system: COL1A1; test: Gene expression custom microarray, pooled keratinocyte line (Example 3): COL1A1; format: cell-based, human; conditions: pooled keratinocytes, 20 ppm, 24 hr
Procedure: (§1) Cell cultures: Received and began culture of pooled keratinocyte line from Promocell (C-12006; Lot #448Z026). Cells were seeded into a 75 cm2 flask and 2 6 well dishes for expansion and exposure per manufacturer's protocol using Keratinocyte Growth Medium (C2011B), Keratinocyte Supplement Mix (C39016) and CaCl (C34005). 2 ml of prepared solution were added to each of the 6 wells and 7 ml was added to the 75 cm2 flask.
(§2) Experimental phase: When the appropriate quantity of cells were grown, they were detached as described above, but at the final step were seeded into each well of one or more 6 well dishes. Each well received 2 ml of the cells suspended in suspension so they were seeded equally. The dishes were returned to the incubator until 85-95% confluency is reached.
(§3) It was at this stage that all wells were rinsed in PBS after aspirating the growth media. The compound(s) to be tested were previously mixed into a suitable solvent (e.g., DMSO or ethanol) that can be diluted to the desired concentration of test compound (10 μl) in the culture wells without exceeding maximum solvent concentrations and adversely effecting cell viability, and mixed with Basal Keratinocyte Media. NOTE: Standard maximum levels of solvent are 0.1% for DMSO and 0.5% for ETOH. The concentration for each tested compound/natural extract is generally listed in the left-hand column of Table 4. For certain compositions (e.g., compositions 15 and 16), other concentrations were used and are noted in the body of Table 4.
(§4) Every 2 wells on the 6 well plate served as a biological replicate for the purposes of RNA isolation and genetic expression evaluations making each 6 well dish an n=3 for the test compound contained in the media. […]
(§5) At the end of the 24 hr time period, the plates were removed from the incubator, the test media aspirated, and the cells rinsed with PBS. […] Allow 1 minute for saturation of the membrane and then centrifuge for 2 minutes to complete the RNA elution. • Quantify the quantity of RNA and store at −20 C° until use (no more than 1 month) […]

[2] = system: IL1A; test: Gene expression custom microarray, pooled keratinocyte line (Example 3): IL1A; format: cell-based, human; conditions: pooled keratinocytes, 20 ppm, 24 hr
Procedure: as §1, §2, §3, §4, §5

| SMILES | ↑COL1A1 gene expression, fold increase or decrease vs untreated cells [1] | ↓IL1A gene expression, fold increase or decrease vs untreated cells [2] |
| --- | --- | --- |
| C=C(C)[C@@H]1CCC(C)=C[C@H]1c1c(O)cc(CCCCC)cc1O [CBD, cannabidiol, reference compound] | 1.6 fold | 2.3 fold |
| CCCCCCCCCCCCCCCC(=O)NCCO [N-palmitoylethanolamide] | −2 fold | −1.2 fold |
| CC(C)[C@]12O[C@H]1[C@@H]1O[C@]13[C@]1(O[C@H]1C[C@H]1C4=C(CC[C@@]13C)C(=O)OC4)[C@@H]2O [Triptolide] | −1.3 fold | −14 fold |
